# Values of other authors in patent US20110052727A1, “Anti Influenza Nutritional Supplements” (priority 2009, published 2011).
# System: lung-adapted PR-8 virus
# Conditions: mouse, in vivo
structure (smiles),measurement,value
"O=C/C=C/c1ccccc1 [CA, trans-cinnamaldehyde]",virus yield reduction in bronchoalveolar lavage fluid,1 log
